{
  "source": "patent US10463669B2",
  "about": "“Composition for treating or preventing liver cancer” (Seoul National University R&DB Foundation, priority 2016, dated 2019)",
  "assay_type_in_all_cases": "cell-based, human",
  "key": {"[1]": {"system": "AKT phosphorylation in HCC cell lines (Huh7 and Hep3B)", "assay": "AKT phosphorylation, immunoblot assay", "settings": "HCC cells", "method": "Medium was exchanged every day, and the aforementioned cells were cultured for 4 days in 300 μmol/L hydrogen peroxide (H2O2) (Sigma Aldrich; H1009). In several experiments, the cells were treated for 1 hour with 5 mmol/L N-acetylcysteine (NAC) (Sigma Aldrich; A7250), 25 μmol/L idelalisib (LC Laboratoties, Woburn, Mass., USA; I-7447), 25 μmol/L perifosine (LC Laboratoties, Woburn, Mass., USA; P-6522), or 30 μmol/L GSK3β inhibitor (GSK3β inhibitor XI) (Santa Cruz; sc-204770) (31) before adding H2O2. Furthermore, sterilized distilled water (pH 7.0) was used as a negative control (i.e., mock treatment).\nTotal 2×10^5 cells were boiled for 5 minutes in 2×SDS sample buffer (100 mmol/L TrisHCl [pH 6.8], 4% SDS, 0.2% bromophenol blue, 20% glycerol, and 200 mmol/L β-mercaptoethanol), and then subjected to SDS-PAGE and Western blotting. To detect the TERT, the cells were cultured in 2×SDS sample buffer for 15 minutes at 55° C. TERT-specific (1:300, Rockland Immunochemicals, Gilbertsville, Pa., USA; 600-401-252), AKT-specific (1:1000, Cell Signaling Technology; #9272), phospho-AKT-specific (1:2000, Cell Signaling Technology; #4060), GAPDH-specific (1:2000, Santa Cruz Biotechnology; sc-47724), or β-actin-specific (1:2000, Sigma-Aldrich, St. Louis, Mo., USA; A5441) antibody was diluted in 5% skim milk or bovine serum albumin with TBS-Tween 20, cultured overnight at 4° C., washed, and cultured with HRP-conjugated secondary antibody (1:1000, Abcam; ab131368, or ab131366). By using FUSION-SOLO imager (Vilber Lourmat, Marne La Vallee, France), a chemical fluorescence image was obtained."}, "[2]": {"system": "telomerase activity in THLE-3 cells", "assay": "Telomerase activity, TRAP assay", "settings": "150 μmol/L H2O2-treated THLE-3 cells", "method": "(§1) To have quantitative determination of the telomerase activity, TRAP assay was carried out by using TRAPEZE® RT Telomerase Detection Kit (Millipore, Darmstadt, Germany; […]). According to the manual, the whole protein extract (100 ng) was used for each reaction."}, "[3]": {"system": "telomerase activity in HCC cell lines (Huh7 and Hep3B)", "assay": "Telomerase activity, TRAP assay", "method": "as §1"}},
  "data": [
    {"smiles": "CC[C@H](Nc1ncnc2nc[nH]c12)c1nc2cccc(F)c2c(=O)n1-c1ccccc1", "note": "[idelalisib, 5-fluoro-3-phenyl-2-[(1S)-1-(7H-purin-6-ylamino)propyl]-4(3H)-quinazolinone]", "values": [
      {"measurement": "pAKT", "setting": "[1]", "result": "inhibit"},
      {"measurement": "telomerase activity", "setting": "[2]", "result": "not"},
      {"measurement": "telomerase activity", "setting": "[3]; 300 μmol/L H2O2-treated HCC cell lines", "result": "reduced"},
      {"measurement": "ROS-mediated increase in telomerase activity", "setting": "[3]; H2O2-treated cells", "result": "almost completely inhibited"}
    ]}
  ]
}
